Reference: US20200338042A1, “USE OF DAPHNETIN IN TREATMENT OF AGE-RELATED COGNITIVE DECLINE” (XI'AN JIAOTONG UNIVERSITY, priority 2019, published 2020)

Legend:
Type in all cases: in vivo
APP/PS1 transgenic mice = test: Morris water maze experiment in APP/PS1 transgenic mice; details: for path length for finding the platform in water maze: FIG. 1B
Source text: (§1) APP/PS1 transgenic mouse model as the Alzheimer's disease transgenic mouse model was used in the experiments. The APP/PS1 double-transgenic mice overexpressing human Aβ precursor protein (APP) and presenilin 1 (PS1) in the brains can simulate typical pathological and neurological symptoms, such as Aβ deposition and cognitive function degeneration, of human AD.
A water maze experiment was used to observe the effect of daphnetin for improving the cognitive function of the mice.
The 3-month-old APP/PS1 transgenic mice and control mice were purchased from the Model Animal Center of Nanjing University. All mice were fed in an environment with a temperature from 23° C. to 25° C., a humidity of 60%, and a 12 h/12 h day/night light cycles. Mice had free access to food and water during the experiment.
After adapting to the feeding environment, the experimental mice were divided into four groups: 1) a group of wild type (WT) mice to which double-distilled water (ddH2O) was daily administered intragastrically (Group WT+ddH2O), the number (n) of the mice is 11 (n=11); 2) a group of wild type mice to which daphnetin was daily administered intragastrically at 100 mg/kg/day (Group WT+Daphnetin), n=12; 3) a group of APP/PS1 mice to which ddH2O was daily administered intragastrically (Group AD+ddH2O), n=15; 4) a group of APP/PS1 mice to which daphnetin was daily administered intragastrically at 100 mg/kg/day (Group AD+Daphnetin), n=14. The entire experiment was lasted for 12 months.
The daily intragastric administrations of daphnetin or ddH2O were lasting for 9 months to corresponding groups of mice before the water maze experiment.
Morris water maze experiment is a classic way to test spatial learning and memory abilities in mice. The experiment was conducted in a round swimming pool with a diameter of 120 cm, divided into four quadrants I, II, III, and IV. A small round platform with a diameter of 7.5 cm was placed in the center the quadrant IV, and submerged 1 cm below the water surface. Four different-shaped markers as visual cues were placed corresponding to the four quadrants on the curtain support around the swimming pool. During the experiment, the water temperature was kept at 25° C., the surroundings were kept quiet, and the swimming pool was isolated from the external environment by the curtain. Each mouse was allowed to swim freely in the swimming pool for 60 seconds (s) on the day before the formal experiment to adapt to the swimming environment. […] The camera placed on the top of the pool recorded the paths of the mice finding the hidden platform in the swimming pool. […] The times and distances that the mice travels to the platform recorded by the camera video tracking system were used to analyze the learning and memory of the mice. […]

Aβ42 = test: ELISA detection of soluble Aβ42 in cerebral cortex tissues of APP/PS1 mice; details: Group AD+Daphnetin (APP/PS1 mice, 100 mg/kg/day intragastrically) compared to Group AD+ddH2O; one week after water maze; FIG. 2B
Source text: as §1
(§2) The contents of Aβ40 and Aβ42 in the brain were detected by the enzyme-linked immunosorbent assay (ELISA) method to observe the effect of daphnetin for ameliorating abnormal protein deposition of the mice.
(§3) Daphnetin was purchased from Nanjing Puyi Biotechnology Co., Ltd.; Aβ40 and […] ELISA detection kits were purchased from Invitrogen Corporation. […]
(§4) Aβ plaque is a significant pathological feature of Alzheimer's disease. As Aβ40 and Aβ42 are most common in the process of producing Aβ, the contents of soluble Aβ40 and Aβ42 in the cerebral cortex tissues were detected by the ELISA method.
(§5) First, the cortex tissue was homogenized using a guanidine salt buffer (5 mol/L guanidine hydrochloride/50 mmol Tris HCl), and the tissue homogenate was centrifuged at 4° C. for 10 minutes at 10,000 g. […] The absorbance (OD450) at a wavelength of 450 nm was measured by a FlexStage3 microplate reader. Protein quantification was performed by using BCA method for ELISA protein calibration. […]

Aβ40 = test: ELISA detection of soluble Aβ40 in cerebral cortex tissues of APP/PS1 mice; details: Group AD+Daphnetin (APP/PS1 mice, 100 mg/kg/day intragastrically) compared to Group AD+ddH2O; one week after water maze; FIG. 2A
Source text: as §1, §2, §3, §4, §5

In the case of `O=c1ccc2ccc(O)c(O)c2o1` [Daphnetin, 7,8-dihydroxycoumarin], the “AUC of swimming time (escape latency) in water maze, Group AD+ddH2O compared to Group AD+Daphnetin” value (APP/PS1 transgenic mice; 5-day training, worded as AD+ddH2O relative to AD+Daphnetin (100 mg/kg/day intragastrically, 9 months), i.e. lower AUC with daphnetin, FIG. 1C) is reported as “increased significantly”, the “path length for finding the platform in water maze” value (APP/PS1 transgenic mice; day 4 of training, Group AD+Daphnetin (APP/PS1 mice, 100 mg/kg/day intragastrically, 9 months) compared to Group AD+ddH2O) is reported as “significant shortened” and the “escape latency in water maze (time to find the escape platform)” value (APP/PS1 transgenic mice; day 5 of training, Group AD+Daphnetin (APP/PS1 mice, 100 mg/kg/day intragastrically, 9 months) compared to Group AD+ddH2O, FIG. 1A) is reported as “significantly shortened”. The “path length for finding the platform in water maze” value (APP/PS1 transgenic mice; day 5 of training, Group AD+Daphnetin (APP/PS1 mice, 100 mg/kg/day intragastrically, 9 months) compared to Group AD+ddH2O) was “significant shortened”, the “level of Aβ42 in the cerebral cortex tissues” value (Aβ42) was “significantly reduced” and the “level of Aβ40 in the cerebral cortex tissues” value (Aβ40) was “significantly reduced”.
